Structures can show the parent of a compound that is named as a salt.

The data set is described as follows: in vitro. The settings on record: human, hek293t cells.
Regarding `CC(Cl)C(=O)N1CCCN(c2ccc(-c3ccccc3)nn2)CC1` (stereo not shown) [7-L15, 2-chloro-1-[4-(6-phenylpyridazin-3-yl)-1,4-diazepan-1-yl]propan-1-one], the viability at 48 h, 25 µM worked out at 76.7%.
For `C=CC(=O)NC1CS(=O)(=O)C1` [3-P18, N-(1,1-dioxo-1lambda6-thietan-3-yl)prop-2-enamide], the viability at 48 h, 25 µM stood at 105%.
On to `C=CC(=O)Nc1cc(C(C)(C)C)nn1-c1ncccn1` [1-E04, N-[3-tert-butyl-1-(pyrimidin-2-yl)-1H-pyrazol-5-yl]prop-2-enamide], for which the viability at 48 h, 25 µM was 88.8%.
Turning to `CC(O)=C(C#N)C(=O)Nc1ccc(C(F)(F)F)cc1` [9-A05, 2-cyano-3-hydroxy-N-[4-(trifluoromethyl)phenyl]but-2-enamide], the viability at 48 h, 25 µM is 90.6%.
For the molecule `COc1ccc(NC(=O)C(C)Cl)c([N+](=O)[O-])c1` (stereo not shown) [6-B08, 2-chloro-N-(4-methoxy-2-nitrophenyl)propanamide], the viability at 48 h, 25 µM stood at 90.1%.
In the case of `Cc1nn(-c2ccccc2)c(C)c1CN(C)C(=O)CCl` [7-B03, 2-chloro-N-[(3,5-dimethyl-1-phenyl-1H-pyrazol-4-yl)methyl]-N-methylacetamide], the viability at 48 h, 25 µM was 0.804%.
Regarding `C=CC(=O)N1CCC(C(=O)N2CCC(c3ncco3)CC2)CC1` [2-B06, 1-{4-[4-(1,3-oxazol-2-yl)piperidine-1-carbonyl]piperidin-1-yl}prop-2-en-1-one], the viability at 48 h, 25 µM was 78.3%.
For `C=CC(=O)Nc1ccc2c(c1)SCC(=O)N2` [1-C22, N-(3-oxo-3,4-dihydro-2H-1,4-benzothiazin-7-yl)prop-2-enamide] the value was 109%.
With `Cc1ccc2nc(-c3ccc(F)cc3)c(CNC(=O)C(C)Cl)n2c1` (stereo not shown) [5-D21, 2-chloro-N-{[2-(4-fluorophenyl)-6-methylimidazo[1,2-a]pyridin-3-yl]methyl}propanamide], the viability at 48 h, 25 µM is 113%.
Turning to `Cc1cc(C(=O)CCl)c(C)n1-c1cc(Cl)cc(Cl)c1` [10-I04, 2-chloro-1-[1-(3,5-dichlorophenyl)-2,5-dimethyl-1H-pyrrol-3-yl]ethan-1-one], the viability at 48 h, 25 µM was 0.227%.
For the molecule `CC(Cl)C(=O)NCc1ccc(Cl)cc1` (stereo not shown) [6-I04, 2-chloro-N-[(4-chlorophenyl)methyl]propanamide], the viability at 48 h, 25 µM turned out to be 107%.
`CC(Cl)C(=O)NC(=O)NC1CCS(=O)(=O)C1` (stereo not shown) [4-J13, 3-(2-chloropropanoyl)-1-(1,1-dioxo-1lambda6-thiolan-3-yl)urea]: the viability at 48 h, 25 µM came to 94.7%.
As for `CC(=O)Nc1ccc(NC(=O)C(C)Cl)cc1` (stereo not shown) [5-N06, 2-chloro-N-(4-acetamidophenyl)propanamide], the viability at 48 h, 25 µM is 101%.
For `Cc1cc(C)n2c(-c3c(Cl)cccc3NC(=O)CCl)nnc2n1` [5-M16, 2-chloro-N-(3-chloro-2-{5,7-dimethyl-[1,2,4]triazolo[4,3-a]pyrimidin-3-yl}phenyl)acetamide], the viability at 48 h, 25 µM came out at 1.81%.
With `CC(Cl)C(=O)NC[C@H]1CCCN(C2CC2)[C@@H]1c1ccnn1C` (mixture of isomers) [6-P20, rac-2-chloro-N-{[(2R,3S)-1-cyclopropyl-2-(1-methyl-1H-pyrazol-5-yl)piperidin-3-yl]methyl}propanamide], the viability at 48 h, 25 µM amounted to 101%.
As for `N#CC(=Cc1ccccc1OC(F)F)C(=O)Nc1ccccc1F` [8-K21, 2-cyano-3-[2-(difluoromethoxy)phenyl]-N-(2-fluorophenyl)prop-2-enamide], the viability at 48 h, 25 µM turned out to be 82.5%.
With `C=CC(=O)NCC(F)(F)c1cccnc1` [1-O12, N-[2,2-difluoro-2-(pyridin-3-yl)ethyl]prop-2-enamide], the viability at 48 h, 25 µM amounted to 111%.
Regarding `CCc1cnc(N2CCN(C(=O)C(C)Cl)CC2)s1` (stereo not shown) [7-C20, 2-chloro-1-[4-(5-ethyl-1,3-thiazol-2-yl)piperazin-1-yl]propan-1-one], the viability at 48 h, 25 µM stood at 79.5%.
On to `O=C(CCl)N1N=C(c2ccco2)CC1c1cccc(Cl)c1` (stereo not shown) [5-M17, 2-chloro-1-[5-(3-chlorophenyl)-3-(furan-2-yl)-4,5-dihydro-1H-pyrazol-1-yl]ethan-1-one], for which the viability at 48 h, 25 µM turned out to be 0.403%.
As to `COc1ccc(C=C(C#N)C(=O)Nc2c(C)cccc2C)cc1OC` [8-A17, 2-cyano-3-(3,4-dimethoxyphenyl)-N-(2,6-dimethylphenyl)prop-2-enamide], the viability at 48 h, 25 µM amounted to 82.9%.
`O=C(CCl)N1CCCCC1Cn1ccnn1` (stereo not shown) [5-E08, 2-chloro-1-{2-[(1H-1,2,3-triazol-1-yl)methyl]piperidin-1-yl}ethan-1-one]: the viability at 48 h, 25 µM was found to be 28%.
As to `O=CN1CCN(C(=O)CCl)CC1` [6-M17, 4-(2-chloroacetyl)piperazine-1-carbaldehyde], the viability at 48 h, 25 µM was 2.22%.
For `NC(=O)c1ccccc1N1CCC(NC(=O)CCl)CC1` [7-P14, 2-[4-(2-chloroacetamido)piperidin-1-yl]benzamide hydrochloride] the value was 0.53%; for `CC(Cl)C(=O)NCC1c2ccccc2C(=O)N1Cc1ccccc1` (stereo not shown) [6-H20, N-[(2-benzyl-3-oxo-2,3-dihydro-1H-isoindol-1-yl)methyl]-2-chloropropanamide], 107%.
In the case of `C=CC(=O)N(C)CC(=O)NC1CCCN(c2ccc(F)cc2F)C1=O` (stereo not shown) [2-P22, N-({[1-(2,4-difluorophenyl)-2-oxopiperidin-3-yl]carbamoyl}methyl)-N-methylprop-2-enamide], the viability at 48 h, 25 µM came to 24.4%.
The result for `CCOC(=O)c1ccccc1NC(=O)CCl` [4-B17, ethyl 2-(2-chloroacetamido)benzoate] reads 45.3%.
As to `COc1ccc(-n2c(C)cc(C(=O)CCl)c2C)cc1` [10-I12, 2-chloro-1-[1-(4-methoxyphenyl)-2,5-dimethyl-1H-pyrrol-3-yl]ethan-1-one], the viability at 48 h, 25 µM is 0.472%.
As for `C=CC(=O)N1CCOC(Cn2nc(C)cc2C)C1` (stereo not shown) [3-C13, 1-{2-[(3,5-dimethyl-1H-pyrazol-1-yl)methyl]morpholin-4-yl}prop-2-en-1-one], the viability at 48 h, 25 µM is 40.5%.
Regarding `Cc1nc(-c2cccc(NC(=O)CCl)c2)cs1` [5-K17, 2-chloro-N-[3-(2-methyl-1,3-thiazol-4-yl)phenyl]acetamide], the viability at 48 h, 25 µM was 13.2%.
On to `CCN(c1ccc(NC(=O)CCl)cc1)C(C)C` [5-J08, 2-chloro-N-{4-[ethyl(propan-2-yl)amino]phenyl}acetamide hydrochloride], for which the viability at 48 h, 25 µM was found to be 3.48%.
As to `COCc1nnc([C@]23CC[C@H]2CCN3C(=O)C(C)Cl)o1` (mixture of isomers) [5-H15, rac-2-chloro-1-[(1R,5R)-1-[5-(methoxymethyl)-1,3,4-oxadiazol-2-yl]-2-azabicyclo[3.2.0]heptan-2-yl]propan-1-one], the viability at 48 h, 25 µM was determined as 108%.
For `CC(C)NC(=O)C(C#N)=Cc1ccc(C(F)(F)F)cc1` [8-L13, 2-cyano-N-(propan-2-yl)-3-[4-(trifluoromethyl)phenyl]prop-2-enamide] the value was 37.8%; for `CC(NC(=O)CCl)C(=O)N1CCS(=O)(=O)CC1` (stereo not shown) [5-K14, 2-chloro-N-[1-(1,1-dioxo-1lambda6-thiomorpholin-4-yl)-1-oxopropan-2-yl]acetamide], 86.7%.
Regarding `C=CC(=O)N1CCC(c2nc(N(C)C)no2)CC1` [2-K09, 1-{4-[3-(dimethylamino)-1,2,4-oxadiazol-5-yl]piperidin-1-yl}prop-2-en-1-one], the viability at 48 h, 25 µM was 194%.

What is called viability is a read-out of living cells in per cent, often relative to untreated cells.

The values above are taken from article PMC11995724, “Antibiotic target discovery by integrated phenotypic and activity-based profiling of electrophilic fragments” (Cell chemical biology, 2025).
